Data taken from US8278455B2, “5- or 6-substituted benzimidazole derivatives as inhibitors of respiratory syncytial virus replication” (Janssen Pharmaceutica N.V., priority 2003, dated 2012).

Tested on: Respiratory Syncytial Virus
Test: In vitro screening for activity against Respiratory Syncytial Virus (MTT tetrazolium colorimetric assay, HeLa cells)
Type: cell-based
Conditions: human respiratory syncytial virus, 168 h; protection against RSV cytopathology in HeLa cells, 7 days after infection; pEC50 = −log of EC50 in molar units
Description: The percent protection against cytopathology caused by viruses (antiviral activity or EC50) achieved by tested compounds and their cytotoxicity (CC50) are both calculated from dose-response curves. The selectivity of the antiviral effect is represented by the selectivity index (SI), calculated by dividing the CC50 (cytotoxic dose for 50% of the cells) by the EC50 (antiviral activity for 50% of the cells). The tables in the above experimental part list the category to which each of the prepared compounds belong. Compounds belonging to activity category “A” have an pEC50 (−log of EC50 when expressed in molar units) equal to or more than 7. Compounds belonging to activity category “B” have a pEC50 value between 6 and 7.
Automated tetrazolium-based […] assays were used for determination of EC50 and CC50 of test compounds. Flat-bottom, 96-well plastic microtiter trays were filled with 180 μl of Eagle's Basal Medium, supplemented with 5% FCS (0% for FLU) and 20 mM Hepes buffer. Subsequently, stock solutions (7.8× final test concentration) of compounds were added in 45 μl volumes to a series of triplicate wells so as to allow simultaneous evaluation of their effects on virus- and mock-infected cells. Five five-fold dilutions were made directly in the microtiter trays using a robot system. Untreated virus controls, and HeLa cell controls were included in each test. Approximately 100 TCID50 of Respiratory Syncytial Virus was added to two of the three rows in a volume of 50 μl. The same volume of medium was added to the third row to measure the cytotoxicity of the compounds at the same concentrations as those used to measure the antiviral activity. After two hours of incubation, a suspension (4×10^5 cells/ml) of HeLa cells was added to all wells in a volume of 50 μl. The cultures were incubated at 37° C. in a 5% CO2 atmosphere. Seven days after infection the cytotoxicity and the antiviral activity was examined spectrophotometrically. To each well of the microtiter tray, 25 μl of a solution of MTT (3-(4,5-dimethylthiazol-2-yl)-2,5-diphenyltetrazolium bromide) was added. The trays were further incubated at 37° C. for 2 hours, after which the medium was removed from each cup. Solubilization of the formazan crystals was achieved by adding 100 μl 2-propanol. Complete dissolution of the formazan crystals were obtained after the trays have been placed on a plate shaker for 10 min. Finally, the absorbances were read in an eight-channel computer-controlled photometer (Multiskan MCC, Flow Laboratories) at two wavelengths (540 and 690 nm). The absorbance measured at 690 nm was automatically subtracted from the absorbance at 540 nm, so as to eliminate the effects of non-specific absorption.

Row | Compound | EC50
1 | Cc1ccc(O)c(Cn2c(NC3CCN(C)CC3)nc3ccc(CNc4cc(Cl)cc(Cl)c4)cc32)n1 [Compound 2, 2-[6-[(3,5-dichloro-phenylamino)-methyl]-2-(1-methyl-piperidin-4-ylamino)-benzoimidazol-1-ylmethyl]-6-methyl-pyridin-3-ol] | 2 nM

Same assay, conditions: protection against RSV cytopathology in HeLa cells, 7 days after infection; pEC50 = −log of EC50 in molar units

Row | Compound | Activity
2 | 2-[6-[(1-ethylidene-3-methyl-penta-2,4-dienylamino)-methyl]-2-(1-methyl-piperidin-4-ylamino)-benzoimidazol-1-ylmethyl]-6-methyl-pyridin-3-ol [Compound 9] | 8.3
3 | Cc1cc(C)cc(N(CCO)Cc2ccc3nc(NC4CCN(C)CC4)n(Cc4nc(C)ccc4O)c3c2)c1 [Compound 1] | 9.4
4 | Cc1cc(C)cc(NCc2ccc3nc(NC4CCN(C)CC4)n(Cc4nc(C)ccc4O)c3c2)c1 [Compound 3] | 8.6
5 | Cc1ccc(O)c(Cn2c(NC3CCN(C)CC3)nc3ccc(CN(CCO)c4ccccc4)cc32)n1 [Compound 4] | 8.5
6 | Cc1cc(C)cc(N(CCN(C)C)Cc2ccc3nc(NC4CCN(C)CC4)n(Cc4nc(C)ccc4O)c3c2)c1 [Compound 5] | 8.5
7 | Cc1ccc(O)c(Cn2c(NC3CCN(C)CC3)nc3ccc(CNc4cccc(Br)c4)cc32)n1 [Compound 6] | 8.4
8 | Cc1ccc(O)c(Cn2c(NC3CCN(C)CC3)nc3ccc(CNc4ccccc4CO)cc32)n1 [Compound 7] | 8.4
9 | CCc1ccccc1NCc1ccc2nc(NC3CCN(C)CC3)n(Cc3nc(C)ccc3O)c2c1 [Compound 8] | 8.4
10 | Cc1ccc(O)c(Cn2c(NC3CCN(C)CC3)nc3ccc(CNc4ccc(S(N)(=O)=O)cc4)cc32)n1 [Compound 10] | 8.3
11 | Cc1ccc(O)c(Cn2c(NC3CCN(C)CC3)nc3ccc(CNc4cccc(Cl)c4)cc32)n1 [Compound 11] | 8.2
12 | Cc1ccc(O)c(Cn2c(NC3CCN(C)CC3)nc3ccc(CNc4ccc(C#N)cc4)cc32)n1 [Compound 12] | 8.2
13 | C#Cc1cccc(NCc2ccc3nc(NC4CCN(C)CC4)n(Cc4nc(C)ccc4O)c3c2)c1 [Compound 13] | 8.1
14 | Cc1ccc(O)c(Cn2c(NC3CCN(C)CC3)nc3ccc(CNc4ccccc4C(N)=O)cc32)n1 [Compound 14] | 8.1
15 | CCc1cccc(NCc2ccc3nc(NC4CCN(C)CC4)n(Cc4nc(C)ccc4O)c3c2)c1 [Compound 15] | 8
16 | Cc1ccc(O)c(Cn2c(NC3CCN(C)CC3)nc3ccc(CN(c4ccccc4)c4ccc(O)cc4)cc32)n1 [Compound 16] | 8
17 | CC(=O)c1ccc(NCc2ccc3nc(NC4CCN(C)CC4)n(Cc4nc(C)ccc4O)c3c2)cc1 [Compound 17] | 8
18 | Cc1ccc(O)c(Cn2c(NC3CCN(C)CC3)nc3ccc(CNc4cccc(F)c4)cc32)n1 [Compound 18] | 7.9
19 | CC(=O)c1cccc(NCc2ccc3nc(NC4CCN(C)CC4)n(Cc4nc(C)ccc4O)c3c2)c1 [Compound 19] | 7.9
20 | Cc1ccc(O)c(Cn2c(NC3CCN(C)CC3)nc3ccc(CNc4cccc(C)c4C)cc32)n1 [Compound 20] | 7.9

Row | Compound | Activity
21 | Cc1ccc(O)c(Cn2c(NC3CCN(C)CC3)nc3ccc(CNc4ccccc4C(C)C)cc32)n1 [Compound 21] | 7.9
22 | Cc1ccc(O)c(Cn2c(NC3CCN(C)CC3)nc3ccc(CNc4ccccc4Br)cc32)n1 [Compound 22] | 7.9
23 | Cc1ccc(O)c(Cn2c(NC3CCN(C)CC3)nc3ccc(CNc4ccccc4F)cc32)n1 [Compound 23] | 7.9
24 | CCOC(=O)c1ccc(NCc2ccc3nc(NC4CCN(C)CC4)n(Cc4nc(C)ccc4O)c3c2)c(O)c1 [Compound 24] | 7.9
25 | CSc1cccc(NCc2ccc3nc(NC4CCN(C)CC4)n(Cc4nc(C)ccc4O)c3c2)c1 [Compound 25] | 7.9
26 | Cc1ccc(O)c(Cn2c(NC3CCN(C)CC3)nc3ccc(CNc4ccc(F)cc4)cc32)n1 [Compound 26] | 7.9
27 | Cc1ccc(O)c(Cn2c(NC3CCN(C)CC3)nc3ccc(CN(Cc4cnc[nH]4)c4ccc(Cl)cc4)cc32)n1 [Compound 27] | 7.9
28 | Cc1ccc(O)c(Cn2c(NC3CCN(C)CC3)nc3ccc(CCc4ccccc4)cc32)n1 [Compound 29] | 7.8
29 | Cc1ccc(O)c(Cn2c(NC3CCN(C)CC3)nc3ccc(CNc4ccccc4)cc32)n1 [Compound 30] | 7.8
30 | Cc1ccc(O)c(Cn2c(NC3CCN(C)CC3)nc3ccc(CNc4cccc5cccnc45)cc32)n1 [Compound 31] | 7.8
31 | Cc1ccc(O)c(Cn2c(NC3CCN(C)CC3)nc3ccc(CNc4ccc5c(c4)OCCO5)cc32)n1 [Compound 32] | 7.8
32 | Cc1ccc(O)c(Cn2c(NC3CCN(C)CC3)nc3ccc(CNc4ccc(CC#N)cc4)cc32)n1 [Compound 34] | 7.8
33 | COc1cc(NCc2ccc3nc(NC4CCN(C)CC4)n(Cc4nc(C)ccc4O)c3c2)cc(OC)c1 [Compound 36] | 7.7
34 | Cc1ccc(NCc2ccc3nc(NC4CCN(C)CC4)n(Cc4nc(C)ccc4O)c3c2)cc1 [Compound 37] | 7.7
35 | Cc1ccc(O)c(Cn2c(NC3CCN(C)CC3)nc3ccc(CNc4ccc(Br)cc4)cc32)n1 [Compound 38] | 7.7
36 | Cc1ccc(O)c(Cn2c(NC3CCN(C)CC3)nc3ccc(CN(CC(=O)O)c4ccccc4)cc32)n1 [Compound 39] | 7.7
37 | Cc1ccc(O)c(Cn2c(NC3CCN(C)CC3)nc3ccc(CNc4cccc(Cl)c4C)cc32)n1 [Compound 40] | 7.6
38 | Cc1ccc(O)c(Cn2c(NC3CCN(C)CC3)nc3ccc(CNc4ccc(C)c(C)c4)cc32)n1 [Compound 41] | 7.6
39 | Cc1ccc(O)c(Cn2c(NC3CCN(C)CC3)nc3ccc(CNc4ccccc4-c4ccccc4)cc32)n1 [Compound 42] | 7.6

Row | Compound | Activity
40 | CCc1cc(C#N)ccc1NCc1ccc2nc(NC3CCN(C)CC3)n(Cc3nc(C)ccc3O)c2c1 [Compound 43] | 7.6
41 | Cc1ccc(O)c(Cn2c(NC3CCN(C)CC3)nc3ccc(CNc4ccc5c(c4)CCC5)cc32)n1 [Compound 45] | 7.5
42 | Cc1ccc(O)c(Cn2c(NC3CCN(C)CC3)nc3ccc(CNc4c(F)cccc4F)cc32)n1 [Compound 46] | 7.5
43 | CCc1cccc(C)c1NCc1ccc2nc(NC3CCN(C)CC3)n(Cc3nc(C)ccc3O)c2c1 [Compound 47] | 7.5
44 | Cc1ccc(O)c(Cn2c(NC3CCN(C)CC3)nc3ccc(CNc4ccc(Br)cc4F)cc32)n1 [Compound 48] | 7.5
45 | CC(=O)Nc1cccc(NCc2ccc3nc(NC4CCN(C)CC4)n(Cc4nc(C)ccc4O)c3c2)c1 [Compound 49] | 7.4
46 | Cc1ccc(O)c(Cn2c(NC3CCN(C)CC3)nc3ccc(CNc4ccc(F)c(F)c4)cc32)n1 [Compound 50] | 7.4
47 | Cc1ccc(O)c(Cn2c(NC3CCN(C)CC3)nc3ccc(CN(C)c4ccccc4)cc32)n1 [Compound 51] | 7.4
48 | CCc1cccc(CC)c1NCc1ccc2nc(NC3CCN(C)CC3)n(Cc3nc(C)ccc3O)c2c1 [Compound 52] | 7.4
49 | CC(=O)Nc1ccc(NCc2ccc3nc(NC4CCN(C)CC4)n(Cc4nc(C)ccc4O)c3c2)cc1 [Compound 53] | 7.4
50 | CCOC(=O)c1ccc(NCc2ccc3nc(NC4CCN(C)CC4)n(Cc4nc(C)ccc4O)c3c2)cc1 [Compound 54] | 7.4
51 | Cc1ccc(O)c(Cn2c(NC3CCN(C)CC3)nc3cc(NC(=O)c4cccnc4)ccc32)n1 [Compound 55] | 7.3
52 | Cc1ccc(O)c(Cn2c(NC3CCN(C)CC3)nc3ccc(NCc4ccccc4)cc32)n1 [Compound 56] | 7.3
53 | CCOC(=O)c1cccc(NCc2ccc3nc(NC4CCN(C)CC4)n(Cc4nc(C)ccc4O)c3c2)c1 [Compound 57] | 7.3
54 | Cc1ccc(O)c(Cn2c(NC3CCN(C)CC3)nc3ccc(CNc4cccc(C(N)=O)c4)cc32)n1 [Compound 58] | 7.3
55 | Cc1ccc(O)c(Cn2c(NC3CCN(C)CC3)nc3ccc(CN(CCN(C)C)Cc4ccccc4)cc32)n1.Cl [Compound 59] | 7.3
56 | Cc1ccc(O)c(Cn2c(NC3CCN(C)CC3)nc3ccc(CNc4ccc(C)c(F)c4)cc32)n1 [Compound 60] | 7.3
57 | COc1ccc(NCc2ccc3nc(NC4CCN(C)CC4)n(Cc4nc(C)ccc4O)c3c2)cc1OC [Compound 61] | 7.3
58 | CCN(Cc1ccc2nc(NC3CCN(C)CC3)n(Cc3nc(C)ccc3O)c2c1)c1ccccc1 [Compound 62] | 7.3
